{"source": "patent US20170143712A1", "about": "“Methods of Treating Cancers, Immune and Autoimmune Diseases, and Inflammatory Diseases Based on BTK Occupancy and BTK Resynthesis Rate” (Acerta Pharma B.V., priority 2014, published 2017)", "key": {"[1]": {"assay": "Plasma pharmacokinetics in healthy volunteers", "assay_type": "in vivo, human", "settings": "15 mg QD Day 1 vs Day 7; 15 mg and 25 mg studies", "experimental": "Forty, healthy adult, non-tobacco using men and women were enrolled in the study. A 15 mg Formula (II) dose (1×15 mg capsule) was administered once daily (QD) to each subject for 7 consecutive days (Days 1 to 7) with a washout period (6 days). PD blood samples were collected from each subject before dosing on Day 1, throughout the study, and up to 144 hours after dosing on Day 7 to characterize Formula (II) PD effects. PK sampling for Formula (II) was also collected before dosing on Day 1, throughout the study, and for 24 hours after dosing on Day 7. Additionally, potential Formula (II) safety issues were monitored through physical examination, vital sign measurements, 12 lead electrocardiograms (ECGs), AEs and clinical laboratory tests.\nThe mean measured plasma concentration of Formula (II) versus time data (PK data) and mean occupancy of BTK by Formula (II) (PD data) were fitted with biophase compartment PK and PD models, respectively to enable prediction of PK and PD for different doses, dose regimens and dose durations. The biophase compartment PK model used to fit Formula (II) concentration versus time data is depicted in FIG. 1(A). The model is a naïve, mean data, two-compartment PK model with a delay d(1,3) for oral absorption. Fitting (optimization) was accomplished via weighed least squares. […]"}, "B cell receptor (BCR) [2]": {"test_system": "B cell receptor (BCR)", "assay": "Ex vivo anti-IgM induced CD86 and CD69 expression on splenocyte B cells after oral dosing of mice", "assay_type": "in vivo, mouse", "settings": "single oral 25 mg/kg", "experimental": "B cell stimulation through the B cell receptor (BCR) with antibodies (e.g., anti-IgM) results in the activation of BTK and subsequent cellular changes, including the upregulation of various cell surface receptors. Measuring the inhibition of BCR induced protein phosphorylation downstream of Btk, and the inhibition of surface receptor upregulation provides a way to assess the Btk inhibitor activity. In the first study, the BTK target occupancy in splenocytes was measured over time, providing evidence for BTK resynthesis in the tissue compartment of interest.\nMice were sacrificed at 3, 6, 12, 18, and 24 hours after treatment with the BTK inhibitors (FIG. 27A, FIG. 27B, and FIG. 27C). Spleens were harvested and splenocyte preparations were made for flow cytometry analysis of B cell functions. Fresh or cryopreserved splenocytes were cultured with a-IgM to stimulate BCR, and the up-regulation of CD69, an early functional marker of B cell activation, was analyzed by flow cytometry."}, "BTK": {"biological_target": "T1, BTK (Canis lupus familiaris, UniProt A0A8I3P3Z9)", "T1 construct": "Purified peripheral B-cells and FNA samples were snap-frozen for measurement of BTK target occupancy; from tissue; host or cells: peripheral blood CD21+ B cells and lymph node fine needle aspirates of companion dogs with spontaneous lymphoma, dosed in vivo", "T1 sequence (A0A8I3P3Z9 1-664)": "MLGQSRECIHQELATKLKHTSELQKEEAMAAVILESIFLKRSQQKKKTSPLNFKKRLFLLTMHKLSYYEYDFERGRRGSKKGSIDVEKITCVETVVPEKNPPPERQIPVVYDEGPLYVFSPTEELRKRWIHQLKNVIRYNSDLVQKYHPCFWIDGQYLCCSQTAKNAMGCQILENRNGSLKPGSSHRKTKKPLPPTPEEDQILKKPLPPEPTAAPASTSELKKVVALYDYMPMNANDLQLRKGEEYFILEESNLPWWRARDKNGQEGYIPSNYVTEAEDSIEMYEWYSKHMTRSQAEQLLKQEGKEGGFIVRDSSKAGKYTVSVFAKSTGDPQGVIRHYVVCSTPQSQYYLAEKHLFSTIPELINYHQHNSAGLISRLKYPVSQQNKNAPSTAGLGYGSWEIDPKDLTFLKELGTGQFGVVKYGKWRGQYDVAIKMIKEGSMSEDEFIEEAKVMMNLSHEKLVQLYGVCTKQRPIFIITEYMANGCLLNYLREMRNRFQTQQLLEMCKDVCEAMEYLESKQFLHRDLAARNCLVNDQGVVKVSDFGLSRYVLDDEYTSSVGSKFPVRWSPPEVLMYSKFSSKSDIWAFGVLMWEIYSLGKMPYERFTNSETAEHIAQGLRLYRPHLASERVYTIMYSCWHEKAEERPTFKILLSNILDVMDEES", "assay": "BTK target occupancy in peripheral B-cells and lymph node fine needle aspirates of dogs with spontaneous lymphoma", "assay_type": "in vivo, dog", "experimental": "Dogs were administered Formula (II) orally once daily and evaluations occurred every 7 days for the first 4 weeks of the study, then every 14 days thereafter. PBMCs and lymph node fine needle aspirates (lymphoma patients only) were obtained for PD analysis on day 0 at time 0 hr and 3 hr, and again at pre-dose (Cmin) on day 7 of drug administration. In each cohort, PK analysis was performed in 2 dogs on day 14 of the study consisting of blood sampling at 0, 0.5, 1, 2, 3, 4, 6, 8, 12, and 24 hr following drug administration.\nPeripheral blood mononuclear cells (PBMCs) were isolated from blood and the CD21+ B-cells were enriched by positive magnetic selection. For fine needle aspiration (FNA) samples, erythrocytes were lysed with ammonium chloride lysis buffer. Purified peripheral B-cells and FNA samples were snap-frozen for measurement of BTK target occupancy. BTK target occupancy was measured using an ELISA with anti-BTK as a capture antibody and a biotinylated active site probe for BTK, followed by streptavidin-HRP as a detection reagent. The ex vivo incubation with Formula (II) provided a baseline signal for each sample. BTK occupancy in the B cell lysates from peripheral B-cells and lymph node FNA preparations was calculated as a percentage of the control after correction for baseline chemoluminescence. All samples were run in quadruplicate."}, "MDA-MB-231 tumor cells": {"test_system": "MDA-MB-231 tumor cells", "assay": "Osteolytic bone lesions after intratibial MDA-MB-231 tumor inoculation in nude rats", "assay_type": "in vivo, rat", "parameters": "mean visual lysis score: scale not given here; mean left tibial density: unit not given here", "experimental": "FIG. 40A, FIG. 40B, FIG. 40C, FIG. 40D, FIG. 40E, FIG. 40F, and FIG. 40G illustrate the bone density in hind limbs of nude rats (n=6 per group) implanted with intratibial MDA-MB231 tumor […] and treated for up to 41 days with vehicle control, zoledronate (active control) or varying doses of Formula (II). Oral gavage administration of Formula (II) was scheduled as 3 days of initial QD dosing, followed by 30 days of BID dosing at the following dose levels: 3/3, 30/30, and 180/90 mg/kg/day. An untreated group of rats, without tibial implants (n=3) represents bone density of concurrently obtained normal rat tibial images. Statistical significance was determined by two-way ANOVA-Dunnett: ns=not significant, *=P<0.05, **=P<0.01, ***=P<0.001, versus Group 1.\nRats were inoculated with MDA-MB-231 tumor cells on Day 1, baseline radiographs were taken on Day 2, and treatment with Formula (II) began on Day 8. Radiographs were taken on Days 10, 17, 24, 31, 38, and 41. Anti-osteolytic activities were determined from differences in bone density and visual lysis scores between the drug-treated and vehicle-treated groups on each observation day, and also from changes in bone density and visual lysis scores in tumor-inoculated left tibias at baseline (Day 2) compared to Days 10, 17, 24,31, 38, and 41.\nRadiographs were blinded for both analyses. […] Visual osteolysis was not detected in any rat in the nave group. The 4% increase in mean bone density from baseline to study end presumably reflected normal growth in these rats."}, "B cell receptor (BCR) [3]": {"test_system": "B cell receptor (BCR)", "assay": "Ex vivo anti-IgM induced CD86 and CD69 expression on splenocyte B cells after oral dosing of mice", "assay_type": "in vivo", "settings": "Mus musculus, single oral 25 mg/kg, 3-24 hours, read-out: CD86 % inhibition over the entire time course"}, "[4]": {"settings": "3 hr after administration, all cohorts"}, "[5]": {"settings": "180 QD/90 BID mg/kg (Group 5), Day 31"}, "[6]": {"settings": "180 QD/90 BID mg/kg (Group 5), Day 41"}}, "note": "“Also recorded” adds a separate entry of the source. Like-named read-outs stand apart in the source and are kept apart here.", "data": [{"smiles": "CC#CC(=O)N1CCC[C@H]1c1nc(-c2ccc(C(=O)Nc3ccccn3)cc2)c2c(N)nccn12", "note": "[Formula (II), (S)-4-(8-amino-3-(1-(but-2-ynoyl)pyrrolidin-2-yl)imidazo[1,5-a]pyrazin-1-yl)-N-(pyridin-2-yl)benzamide]", "values": [{"measurement": "accumulation or change in PK after repeat dosing", "setting": "[1]", "result": "no apparent accumulation; also recorded: little to no accumulation or change in PK after repeat dosing"}, {"measurement": "inhibition at 25 mg/kg", "setting": "B cell receptor (BCR) [2]; Mus musculus, B-cell, 3-24 hours, read-out: CD69 % inhibition over the entire time course", "result": 84.3, "unit": "%"}, {"measurement": "inhibition of ex vivo anti-IgM induced responses in B cells", "setting": "B cell receptor (BCR) [2]; 3 hours post-dose", "result": "near complete inhibition"}, {"measurement": "inhibition of CD86 and CD69 expression", "setting": "B cell receptor (BCR) [2]; persisting for 24 hours", "result": "partial inhibition"}, {"measurement": "BTK occupancy in lymph node FNAs", "setting": "BTK; [4]", "result": "> 90", "unit": "%"}, {"measurement": "BTK occupancy in peripheral B-cells", "setting": "BTK; [4]", "result": "≥ 90", "unit": "%"}, {"measurement": "BTK occupancy in peripheral blood sample", "setting": "BTK; day 7 pre-dose, steady state (24 hr QD or 12 hr BID after dose)", "result": "Full BTK occupancy"}, {"measurement": "BTK occupancy in tumor bearing lymph nodes", "setting": "BTK; pre-dose Day 7", "result": "82-88%"}, {"measurement": "left tibial bone density compared to vehicle controls", "setting": "MDA-MB-231 tumor cells; 3 or 30 mg/kg, any observation day excluding Day 24 for 30 mg/kg", "result": "no significant differences"}, {"measurement": "left intratibial densities compared to control Group 1", "setting": "MDA-MB-231 tumor cells; 180 QD/90 BID mg/kg (Group 5)", "result": "significantly greater compared to control Group 1 on Day 31, but not Day 41"}, {"measurement": "mean left tibial density", "setting": "MDA-MB-231 tumor cells; 180 QD/90 BID mg/kg (Group 5), Day 2 baseline", "result": "201.4±0.6"}, {"measurement": "decrease in mean left tibial density", "setting": "MDA-MB-231 tumor cells; 180 QD/90 BID mg/kg (Group 5), Day 2 to Days 31 and 41", "result": "1-2%"}, {"measurement": "mean left tibial density", "setting": "MDA-MB-231 tumor cells; [5]", "result": "199.1±0.6"}, {"measurement": "mean visual lysis score", "setting": "MDA-MB-231 tumor cells; [5]", "result": 1.2}, {"measurement": "mean left tibial density", "setting": "MDA-MB-231 tumor cells; [6]", "result": "197.2±0.6"}, {"measurement": "mean visual lysis score", "setting": "MDA-MB-231 tumor cells; [6]", "result": 1.5}, {"measurement": "rats that never developed visible left tibial lesions", "setting": "MDA-MB-231 tumor cells; 180 QD/90 BID mg/kg (Group 5), n=6", "result": "Two rats"}, {"measurement": "inhibition at 25 mg/kg", "setting": "B cell receptor (BCR) [3]", "result": 67.9, "unit": "%"}]}]}
